Data as given in PubChem BioAssay AID1259407 (Chemical Carcinogenesis Research Information System (CCRIS), 2018).
The source made the active and inactive calls. How the calls were made is not given here.

Tested on: CCRIS mutagenicity, Ames/micronucleus/aberration tests
Assay: CCRIS mutagenicity studies
[1] = Test System: AMES SALMONELLA TYPHIMURIUM, Strain/Indicator: TA98, Metabolic Activation: NONE, Method: STANDARD PLATE
[2] = Test System: AMES SALMONELLA TYPHIMURIUM, Strain/Indicator: TA98, Metabolic Activation: RAT, LIVER, S-9, AROCLOR 1254, Method: STANDARD PLATE
[3] = Test System: AMES SALMONELLA TYPHIMURIUM, Strain/Indicator: TA100, Metabolic Activation: NONE, Method: PREINCUBATION
[4] = Test System: AMES SALMONELLA TYPHIMURIUM, Strain/Indicator: TA100, Metabolic Activation: NONE, Method: STANDARD PLATE
[5] = Test System: AMES SALMONELLA TYPHIMURIUM, Strain/Indicator: TA100, Metabolic Activation: RAT, LIVER, S-9, AROCLOR 1254, Method: STANDARD PLATE
[6] = Test System: AMES SALMONELLA TYPHIMURIUM, Strain/Indicator: TA1535, Metabolic Activation: NONE, Method: PREINCUBATION
[7] = Test System: AMES SALMONELLA TYPHIMURIUM, Strain/Indicator: TA1535, Metabolic Activation: NONE, Method: STANDARD PLATE
[8] = Test System: AMES SALMONELLA TYPHIMURIUM, Strain/Indicator: TA1535, Metabolic Activation: RAT, LIVER, S-9, AROCLOR 1254, Method: STANDARD PLATE
[9] = Test System: AMES SALMONELLA TYPHIMURIUM, Strain/Indicator: TA1537, Metabolic Activation: NONE, Method: STANDARD PLATE
[10] = Test System: AMES SALMONELLA TYPHIMURIUM, Strain/Indicator: TA1537, Metabolic Activation: RAT, LIVER, S-9, AROCLOR 1254, Method: STANDARD PLATE
[11] = Test System: AMES SALMONELLA TYPHIMURIUM, Strain/Indicator: TA1538, Metabolic Activation: NONE, Method: STANDARD PLATE
[12] = Test System: AMES SALMONELLA TYPHIMURIUM, Strain/Indicator: TA1538, Metabolic Activation: RAT, LIVER, S-9, AROCLOR 1254, Method: STANDARD PLATE

Structure (SMILES): C=CC(=O)OCCCCCCOC(=O)C=C
- mutagenic call (Test System: AMES SALMONELLA TYPHIMURIUM, Strain/Indicator: TA97, Metabolic Activation: HAMSTER, LIVER, S-9, AROCLOR 1254 (10%), Method: PREINCUBATION): inactive; negative
- mutagenic call (Test System: AMES SALMONELLA TYPHIMURIUM, Strain/Indicator: TA97, Metabolic Activation: HAMSTER, LIVER, S-9, AROCLOR 1254 (30%), Method: PREINCUBATION): inactive; negative
- mutagenic call (Test System: AMES SALMONELLA TYPHIMURIUM, Strain/Indicator: TA97, Metabolic Activation: NONE, Method: PREINCUBATION): inactive; negative
- mutagenic call (Test System: AMES SALMONELLA TYPHIMURIUM, Strain/Indicator: TA97, Metabolic Activation: RAT, LIVER, S-9, AROCLOR 1254 (10%), Method: PREINCUBATION): inactive; negative
- mutagenic call (Test System: AMES SALMONELLA TYPHIMURIUM, Strain/Indicator: TA97, Metabolic Activation: RAT, LIVER, S-9, AROCLOR 1254 (30%), Method: PREINCUBATION): inactive; negative
- mutagenic call (Test System: AMES SALMONELLA TYPHIMURIUM, Strain/Indicator: TA98, Metabolic Activation: HAMSTER, LIVER, S-9, AROCLOR 1254 (10%), Method: PREINCUBATION): inactive; negative
- mutagenic call (Test System: AMES SALMONELLA TYPHIMURIUM, Strain/Indicator: TA98, Metabolic Activation: HAMSTER, LIVER, S-9, AROCLOR 1254 (30%), Method: PREINCUBATION): inactive; negative
- mutagenic call (Test System: AMES SALMONELLA TYPHIMURIUM, Strain/Indicator: TA98, Metabolic Activation: NONE, Method: PREINCUBATION): inactive; negative
- mutagenic call [1]: inactive; negative
- mutagenic call (Test System: AMES SALMONELLA TYPHIMURIUM, Strain/Indicator: TA98, Metabolic Activation: RAT, LIVER, S-9, AROCLOR 1254 (10%), Method: PREINCUBATION): inactive; negative
- mutagenic call (Test System: AMES SALMONELLA TYPHIMURIUM, Strain/Indicator: TA98, Metabolic Activation: RAT, LIVER, S-9, AROCLOR 1254 (30%), Method: PREINCUBATION): inactive; negative
- mutagenic call [2]: inactive; negative
- mutagenic call (Test System: AMES SALMONELLA TYPHIMURIUM, Strain/Indicator: TA98, Metabolic Activation: RAT, LIVER, S-9, SODIUM PHENOBARBITAL, Method: STANDARD PLATE): inactive; negative
- mutagenic call (Test System: AMES SALMONELLA TYPHIMURIUM, Strain/Indicator: TA100, Metabolic Activation: HAMSTER, LIVER, S-9, AROCLOR 1254 (10%), Method: PREINCUBATION): inactive; negative
- mutagenic call (Test System: AMES SALMONELLA TYPHIMURIUM, Strain/Indicator: TA100, Metabolic Activation: HAMSTER, LIVER, S-9, AROCLOR 1254 (30%), Method: PREINCUBATION): inactive; negative
- mutagenic call [3]: inactive; negative
- mutagenic call [4]: inactive; negative
- mutagenic call (Test System: AMES SALMONELLA TYPHIMURIUM, Strain/Indicator: TA100, Metabolic Activation: RAT, LIVER, S-9, AROCLOR 1254 (10%), Method: PREINCUBATION): inactive; negative
- mutagenic call (Test System: AMES SALMONELLA TYPHIMURIUM, Strain/Indicator: TA100, Metabolic Activation: RAT, LIVER, S-9, AROCLOR 1254 (30%), Method: PREINCUBATION): inactive; negative
- mutagenic call [5]: inactive; negative
- mutagenic call (Test System: AMES SALMONELLA TYPHIMURIUM, Strain/Indicator: TA100, Metabolic Activation: RAT, LIVER, S-9, SODIUM PHENOBARBITAL, Method: STANDARD PLATE): inactive; negative
- mutagenic call (Test System: AMES SALMONELLA TYPHIMURIUM, Strain/Indicator: TA1535, Metabolic Activation: HAMSTER, LIVER, S-9, AROCLOR 1254 (10%), Method: PREINCUBATION): inactive; negative
- mutagenic call (Test System: AMES SALMONELLA TYPHIMURIUM, Strain/Indicator: TA1535, Metabolic Activation: HAMSTER, LIVER, S-9, AROCLOR 1254 (30%), Method: PREINCUBATION): inactive; negative
- mutagenic call [6]: inactive; negative
- mutagenic call [7]: inactive; negative
- mutagenic call (Test System: AMES SALMONELLA TYPHIMURIUM, Strain/Indicator: TA1535, Metabolic Activation: RAT, LIVER, S-9, AROCLOR 1254 (10%), Method: PREINCUBATION): inactive; negative
- mutagenic call (Test System: AMES SALMONELLA TYPHIMURIUM, Strain/Indicator: TA1535, Metabolic Activation: RAT, LIVER, S-9, AROCLOR 1254 (30%), Method: PREINCUBATION): inactive; negative
- mutagenic call [8]: inactive; negative
- mutagenic call (Test System: AMES SALMONELLA TYPHIMURIUM, Strain/Indicator: TA1535, Metabolic Activation: RAT, LIVER, S-9, SODIUM PHENOBARBITAL, Method: STANDARD PLATE): inactive; negative
- mutagenic call (Test System: AMES SALMONELLA TYPHIMURIUM, Strain/Indicator: TA1537, Metabolic Activation: HAMSTER, LIVER, S-9, AROCLOR 1254 (10%), Method: PREINCUBATION): inactive; negative
- mutagenic call (Test System: AMES SALMONELLA TYPHIMURIUM, Strain/Indicator: TA1537, Metabolic Activation: NONE, Method: PREINCUBATION): inactive; negative
- mutagenic call [9]: inactive; negative
- mutagenic call (Test System: AMES SALMONELLA TYPHIMURIUM, Strain/Indicator: TA1537, Metabolic Activation: RAT, LIVER, S-9, AROCLOR 1254 (10%), Method: PREINCUBATION): inactive; negative
- mutagenic call [10]: inactive; negative
- mutagenic call (Test System: AMES SALMONELLA TYPHIMURIUM, Strain/Indicator: TA1537, Metabolic Activation: RAT, LIVER, S-9, SODIUM PHENOBARBITAL, Method: STANDARD PLATE): inactive; negative
- mutagenic call [11]: inactive; negative
- mutagenic call [12]: inactive; negative
- mutagenic call (Test System: AMES SALMONELLA TYPHIMURIUM, Strain/Indicator: TA1538, Metabolic Activation: RAT, LIVER, S-9, SODIUM PHENOBARBITAL, Method: STANDARD PLATE): inactive; negative

Structure (SMILES): O=[N+]([O-])c1ccc2c3c(c(O)ccc13)-c1ccccc1-2
- mutagenic call (Test System: AMES SALMONELLA TYPHIMURIUM, Strain/Indicator: TA98(1,8-DNP6), Metabolic Activation: NONE, Method: STANDARD PLATE): inactive; negative
- mutagenic call (Test System: AMES SALMONELLA TYPHIMURIUM, Strain/Indicator: TA98(NR), Metabolic Activation: NONE, Method: STANDARD PLATE): inactive; negative
- mutagenic call [1]: active; positive
- mutagenic call (Test System: AMES SALMONELLA TYPHIMURIUM, Strain/Indicator: TA100(NR), Metabolic Activation: NONE, Method: STANDARD PLATE): inactive; negative
- mutagenic call (Test System: AMES SALMONELLA TYPHIMURIUM, Strain/Indicator: TA100(TN5-1,8-DNP1012), Metabolic Activation: NONE, Method: STANDARD PLATE): inactive; negative
- mutagenic call [4]: inactive; negative

Structure (SMILES): COc1cc(N)c(C)cc1N
- mutagenic call [1]: inactive; negative
- mutagenic call [2]: inactive; negative
- mutagenic call [4]: inactive; negative
- mutagenic call [5]: inactive; negative
- mutagenic call [7]: inactive; negative
- mutagenic call [8]: inactive; negative
- mutagenic call [9]: inactive; negative
- mutagenic call [10]: inactive; negative
- mutagenic call [11]: inactive; negative
- mutagenic call [12]: inactive; negative

Structure (SMILES): c1ccc(-c2ccc(CC3CO3)cc2)cc1 (configuration not stated)
- mutagenic call [3]: active; positive
- mutagenic call [4]: active; positive
- mutagenic call [6]: active; positive
- mutagenic call [7]: active; positive

Structure (SMILES): COC(=O)/C=C/C(C)=C\C=C\C(C)=C\C=C\C=C(C)\C=C\C=C(C)\C=C\C(=O)O
- mutagenic call (Test System: Mouse lymphoma, Strain/Indicator: L5178Y (tk+/tk-), Metabolic Activation: None, Method: Suspension/plate): inactive; negative
- mutagenic call (Test System: Mouse lymphoma, Strain/Indicator: L5178Y (tk+/tk-), Metabolic Activation: Rat, Liver, S-9, Aroclor 1254, Method: Suspension/plate): inactive; negative

Structure (SMILES): CN(N=O)C(=O)Oc1cccc2ccccc12
- mutagenic call (End Point: IN VITRO CHROMOSOMAL ABERRATIONS, Test System: CHINESE HAMSTER V79-E CELLS, Metabolic Activation: NONE): active; positive
- mutagenic call (Test System: E. COLI WP2, Strain/Indicator: WP2, Metabolic Activation: NONE, Method: STANDARD PLATE): active; positive
